Data from patent US20230270753A1, “COMBINATIONS OF GABAA ALPHA 5 AGONISTS AND SV2A INHIBITORS AND METHODS OF USING IN THE TREATMENT OF COGNITIVE IMPAIRMENT” (AGENEBIO, INC., priority 2020, published 2023).

Assays:
aged-impaired (AI) rats = experiment: Radial Arm Maze task, one-hour delay, levetiracetam (Example 1); format: in vivo, rat
Experimental: The effects of levetiracetam on the spatial memory retention of aged-impaired (AI) rats were assessed in a Radial Arm Maze (RAM) behavioral task using vehicle control and five different dosage levels of levetiracetam (1.25 mg/kg/day, 2.5 mg/kg/day, 5 mg/kg/day, 10 mg/kg/day and 20 mg/kg/day). RAM behavioral tasks were performed on ten AI rats. All six treatment conditions were tested on all ten rats, as described above for the MWM test. The RAM apparatus used consisted of eight equidistantly spaced arms. An elevated maze arm (7 cm width×75 cm length) projected from each facet of an octagonal center platform (30 cm diameter, 51.5 cm height). […] A food well (4 cm diameter, 2 cm deep) was located at the distal end of each arm. Froot Loops' (Kellogg Company) were used as rewards. […] Numerous extra maze cues surrounding the apparatus were also provided. The AI rats were initially subjected to a pre-training test (Chappell et al. Neuropharmacology 37: 481-487, 1998). […] In the habituation phase, rats were familiarized to the maze for an 8-minute session on four consecutive days. […] To counterbalance any potential bias, drug effect was assessed using ascending-descending dose series, i.e., the dose series was given first in an ascending order and then repeated in a descending order. […]

[1] = tested on: reelin in Entorhinal Cortex (EC2); experiment: Reelin mRNA in situ hybridization in entorhinal cortex (Example 5); format: in vivo, rat

CC[C@@H](C(N)=O)N1CCCC1=O [levetiracetam, (2S)-2-(2-oxopyrrolidin-1-yl)butanamide]
effective doses of levetiracetam in the animal model (radial arm maze errors) (aged-impaired (AI) rats; AI rats, levetiracetam on its own): 5 to 10 mg/kg | reduction of the number of errors in the radial arm maze (aged-impaired (AI) rats; levetiracetam on its own at 1.25 mg/kg or 2.5 mg/kg): not at 1.25 mg/kg or 2.5 mg/kg | reelin mRNA expression in the lateral entorhinal cortex vs AI-VEH ([1]; levetiracetam 10 mg/kg/day for 28 days, AI rats): significantly increased the expression of reelin | levels of reelin in Entorhinal Cortex (EC2) ([1]; levetiracetam 10 mg/kg/day in osmotic minipumps for four weeks, aged-impaired rats): restores the levels of reelin in Entorhinal Cortex (EC2)
